Laboratory results from ChEMBL document CHEMBL4118205, “Design, synthesis and biological evaluation of artemisinin derivatives containing fluorine atoms as anticancer agents” (Bioorg Med Chem Lett, 2018).

Columns and labels:
U-87 MG [1] = test: Cytotoxicity against human U87 cells assessed as reduction in cell viability after 72 hrs by MTT assay; format: functional, cell-based, U-87MG ATCC
SH-SY5Y [2] = test: Cytotoxicity against human SH-SY5Y cells assessed as reduction in cell viability after 72 hrs by MTT assay; format: functional, cell-based
MCF7 [3] = test: Cytotoxicity against human MCF7 cells assessed as reduction in cell viability after 72 hrs by MTT assay; format: functional, cell-based; conditions: MCF7, 72 h
MDA-MB-231 [4] = test: Cytotoxicity against human MDA-MB-231 cells assessed as reduction in cell viability after 72 hrs by MTT assay; format: functional, cell-based; conditions: MDA-MB-231, 72 h
A549 [5] = test: Cytotoxicity against human A549 cells assessed as reduction in cell viability after 72 hrs by MTT assay; format: functional, cell-based; conditions: A549, 72 h
A-375 = test: Cytotoxicity against human A375 cells assessed as reduction in cell viability after 72 hrs by MTT assay; format: functional, cell-based; conditions: A-375, 72 h
L02 [6] = test: Cytotoxicity against human L02 cells assessed as reduction in cell viability after 72 hrs by MTT assay; format: functional, cell-based; conditions: L02, 72 h
U-87 MG [7] = test: Cytotoxicity against human U87 cells assessed as reduction in cell viability after 24 to 72 hrs by MTT assay; format: functional, cell-based, U-87MG ATCC
SH-SY5Y [8] = test: Cytotoxicity against human SH-SY5Y cells assessed as reduction in cell viability after 24 to 72 hrs by MTT assay; format: functional, cell-based
MCF7 [9] = test: Cytotoxicity against human MCF7 cells assessed as reduction in cell viability after 24 to 72 hrs by MTT assay; format: functional, cell-based
MDA-MB-231 [10] = test: Cytotoxicity against human MDA-MB-231 cells assessed as reduction in cell viability after 24 to 72 hrs by MTT assay; format: functional, cell-based
A549 [11] = test: Cytotoxicity against human A549 cells assessed as reduction in cell viability after 24 to 72 hrs by MTT assay; format: functional, cell-based
L02 [12] = test: Cytotoxicity against human L02 cells assessed as reduction in cell viability after 24 to 72 hrs by MTT assay; format: functional, cell-based

Work on `C[C@H]1[C@H](N2CCN(Cc3cccc(F)c3)CC2)O[C@@H]2O[C@@]3(C)CC[C@H]4[C@H](C)CC[C@@H]1[C@@]24OO3` yielded an IC50 (U-87 MG [1]) greater than 50 µM, an IC50 (SH-SY5Y [2]) greater than 50 µM and an IC50 (MCF7 [3]) of 6.8 µM. For the same compound, the IC50 (MDA-MB-231 [4]) was 32.9 µM, the IC50 (A549 [5]) was 44.4 µM and the IC50 (A-375) was 46.5 µM. The IC50 (L02 [6]) was 23.2 µM.

`C[C@H]1[C@@H](O)O[C@@H]2O[C@@]3(C)CC[C@H]4[C@H](C)CC[C@@H]1[C@@]24OO3` [ARTENIMOL] showed an IC50 (U-87 MG [1]) greater than 50 µM, an IC50 (SH-SY5Y [2]) greater than 50 µM and an IC50 (MCF7 [3]) greater than 50 µM. The IC50 (MDA-MB-231 [4]) was 45.7 µM, the IC50 (A549 [5]) was 46.8 µM and the IC50 (A-375) was 38.5 µM. The IC50 (L02 [6]) was 34 µM.

For `C[C@H]1[C@H](N2CCN(Cc3ccc(F)cc3)CC2)O[C@@H]2O[C@@]3(C)CC[C@H]4[C@H](C)CC[C@@H]1[C@@]24OO3`, the IC50 (U-87 MG [1]) was greater than 50 µM, the IC50 (SH-SY5Y [2]) was 15 µM and the IC50 (MCF7 [3]) was 3.5 µM. For the same compound, the IC50 (MDA-MB-231 [4]) was 12 µM, the IC50 (A549 [5]) was 35.9 µM and the IC50 (A-375) was 12.8 µM. For the same compound, the IC50 (L02 [6]) was 17.1 µM.

`C[C@@H]1CC[C@H]2[C@@H](C)C(=O)O[C@@H]3O[C@@]4(C)CC[C@@H]1[C@]32OO4` [ARTEMISININ] was tested, and the IC50 (U-87 MG [1]) was greater than 50 µM, the IC50 (SH-SY5Y [2]) was greater than 50 µM and the IC50 (MCF7 [3]) was greater than 50 µM. It also gave an IC50 (MDA-MB-231 [4]) greater than 50 µM, an IC50 (A549 [5]) greater than 50 µM and an IC50 (A-375) greater than 50 µM. It also gave an IC50 (L02 [6]) greater than 50 µM.

With `COc1cccc2c1C(=O)c1c(O)c3c(c(O)c1C2=O)C[C@@](O)(C(=O)CO)C[C@@H]3O[C@H]1C[C@H](N)[C@H](O)[C@H](C)O1` [DOXORUBICIN] the IC50 (MDA-MB-231 [4]) was 2.8 µM, the IC50 (A549 [5]) was 2.3 µM and the IC50 (A-375) was 0.4 µM. For the same compound, the IC50 (L02 [6]) was 0.9 µM.

`CCOC(=O)N1CCN([C@@H]2O[C@@H]3O[C@@]4(C)CC[C@H]5[C@H](C)CC[C@@H]([C@H]2C)[C@@]35OO4)CC1` gave an IC50 (U-87 MG [7]) greater than 50 µM, an IC50 (SH-SY5Y [8]) greater than 50 µM and an IC50 (MCF7 [9]) of 15.2 µM. The IC50 (MDA-MB-231 [10]) was 19.2 µM, the IC50 (A549 [11]) was 19.9 µM and the IC50 (L02 [12]) was greater than 50 µM.

In the case of `C[C@H]1[C@H](N2CCN(c3ccc(C(F)(F)F)cc3)CC2)O[C@@H]2O[C@@]3(C)CC[C@H]4[C@H](C)CC[C@@H]1[C@@]24OO3`, the IC50 (U-87 MG [1]) is reported as greater than 50 µM, the IC50 (SH-SY5Y [2]) is reported as greater than 50 µM and the IC50 (MCF7 [3]) is reported as 27 µM. For the same compound, the IC50 (MDA-MB-231 [4]) was greater than 50 µM, the IC50 (A549 [5]) was greater than 50 µM and the IC50 (A-375) was 40.9 µM. It also gave an IC50 (L02 [6]) of 20.5 µM.

For `Cn1nnc2c(C(N)=O)ncn2c1=O` [TEMOZOLOMIDE], the IC50 (U-87 MG [1]) was greater than 50 µM and the IC50 (SH-SY5Y [2]) was greater than 50 µM.

Compound `C[C@H]1[C@H](NCc2ccc(OC(F)(F)F)cc2)O[C@@H]2O[C@@]3(C)CC[C@H]4[C@H](C)CC[C@@H]1[C@@]24OO3` has an IC50 (U-87 MG [1]) of 17.7 µM, an IC50 (SH-SY5Y [2]) of 5 µM and an IC50 (MCF7 [3]) of 10.2 µM. It also gave an IC50 (MDA-MB-231 [4]) of 21.8 µM, an IC50 (A549 [5]) of 17.9 µM and an IC50 (A-375) of 10.9 µM. The IC50 (L02 [6]) was 35.7 µM.

For `C[C@H]1[C@H](Nc2ccc(SC(F)(F)F)cc2)O[C@@H]2O[C@@]3(C)CC[C@H]4[C@H](C)CC[C@@H]1[C@@]24OO3`, the IC50 (U-87 MG [1]) was 28 µM, the IC50 (SH-SY5Y [2]) was 20.3 µM and the IC50 (MCF7 [3]) was 5.3 µM. The IC50 (MDA-MB-231 [4]) was 22.9 µM, the IC50 (A549 [5]) was 41.8 µM and the IC50 (A-375) was 26.5 µM. For the same compound, the IC50 (L02 [6]) was 9.3 µM.

With `C[C@H]1[C@H](N2CCN(C(=O)Nc3ccc(C(F)(F)F)cc3)CC2)O[C@@H]2O[C@@]3(C)CC[C@H]4[C@H](C)CC[C@@H]1[C@@]24OO3` the IC50 (U-87 MG [1]) was 15.2 µM, the IC50 (SH-SY5Y [2]) was 3.2 µM and the IC50 (MCF7 [3]) was 2.7 µM. The IC50 (MDA-MB-231 [4]) was 5.8 µM, the IC50 (A549 [5]) was 21.1 µM and the IC50 (A-375) was 15 µM. The IC50 (L02 [6]) was 4 µM.

For `C[C@H]1[C@H](N2CCN(c3ccc(F)cc3)CC2)O[C@@H]2O[C@@]3(C)CC[C@H]4[C@H](C)CC[C@@H]1[C@@]24OO3`, the IC50 (U-87 MG [1]) was 25.5 µM, the IC50 (SH-SY5Y [2]) was greater than 50 µM and the IC50 (MCF7 [3]) was 28.8 µM. The IC50 (MDA-MB-231 [4]) was greater than 50 µM, the IC50 (A549 [5]) was greater than 50 µM and the IC50 (A-375) was greater than 50 µM. The IC50 (L02 [6]) was 11.2 µM.

With `C[C@H]1[C@H](N2CCN(C(=O)Nc3ccc(F)cc3)CC2)O[C@@H]2O[C@@]3(C)CC[C@H]4[C@H](C)CC[C@@H]1[C@@]24OO3` the IC50 (U-87 MG [1]) was 28.7 µM, the IC50 (SH-SY5Y [2]) was 5 µM and the IC50 (MCF7 [3]) was 5.5 µM. It also gave an IC50 (MDA-MB-231 [4]) of 10.9 µM, an IC50 (A549 [5]) of 17.6 µM and an IC50 (A-375) of 9.1 µM. It also gave an IC50 (L02 [6]) of 15.6 µM.

Work on `C[C@H]1[C@H](N2CCN(c3cccc(C(F)(F)F)c3)CC2)O[C@@H]2O[C@@]3(C)CC[C@H]4[C@H](C)CC[C@@H]1[C@@]24OO3` yielded an IC50 (U-87 MG [1]) greater than 50 µM, an IC50 (SH-SY5Y [2]) of 11.2 µM and an IC50 (MCF7 [3]) of 7.5 µM. It also gave an IC50 (MDA-MB-231 [4]) of 12.5 µM, an IC50 (A549 [5]) of 12.9 µM and an IC50 (A-375) of 20 µM. The IC50 (L02 [6]) was 9.1 µM.
